Patent publication US7396837B2, “Antitumoral analogs of lamellarins” (Pharma Mar, S.A.U., priority 2002, dated 2008)
Where two headings read alike, the source gives them in different places.

Legend:
Type in all cases: cell-based
[1] = system: SK-MEL-28; experiment: SRB colorimetric cell growth inhibition assay, SK-MEL-28; conditions: Homo sapiens; for GI50: GI=growth inhibition, read-out: GI50 MEL-28; for IC (TGI): TGI=total growth inhibition (cytostatic effect), read-out: TGI MEL-28; for CC50: LC=cell killing (cytotoxic effect)
How it was run: (§1)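 After uninterrupted treatment, cultures are fixed and stained with sulforhodamine B, and absorbance reflects cell growth and viability. Each value represents the average of triplicate wells with SD.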

[2] = system: LoVo-Dox; experiment: SRB colorimetric cell growth inhibition assay, LoVo-Dox (MDR); conditions: Homo sapiens; for GI50: GI=growth inhibition, read-out: GI50 LOVO-DOX; for IC (TGI): TGI=total growth inhibition (cytostatic effect), read-out: TGI LOVO-DOX; for CC50: LC=cell killing (cytotoxic effect)
How it was run: as §1

[3] = system: LoVo; experiment: SRB colorimetric cell growth inhibition assay, LoVo; conditions: Homo sapiens, LoVo; for CC50: LC=cell killing (cytotoxic effect); for GI50: GI=growth inhibition, read-out: GI50 LOVO; for IC (TGI): TGI=total growth inhibition (cytostatic effect), read-out: TGI LOVO
How it was run: as §1

[4] = system: HeLa; experiment: SRB colorimetric cell growth inhibition assay, HeLa; conditions: Homo sapiens, HeLa; for CC50: LC=cell killing (cytotoxic effect); for IC (TGI): read-out: TGI HELA; for GI50: GI=growth inhibition, read-out: GI50 HELA
How it was run: as §1

[5] = system: LNCaP; experiment: SRB colorimetric cell growth inhibition assay, LNCaP; conditions: Homo sapiens, LNCaP; for GI50: GI=growth inhibition, read-out: GI50 LN-caP; for IC (TGI): TGI=total growth inhibition (cytostatic effect), read-out: TGI LN-caP; for CC50: LC=cell killing (cytotoxic effect)
How it was run: as §1

[6] = system: IGROV-ET; experiment: SRB colorimetric cell growth inhibition assay, IGROV-ET (ET-743 resistant); conditions: Homo sapiens; for GI50: GI=growth inhibition, read-out: GI50 IGROV-ET; for IC (TGI): TGI=total growth inhibition (cytostatic effect), read-out: TGI IGROV-ET; for CC50: LC=cell killing (cytotoxic effect)
How it was run: as §1

[7] = system: A-549; experiment: SRB colorimetric cell growth inhibition assay, A-549; conditions: Homo sapiens; for GI50: GI=growth inhibition, read-out: GI50 A-549; for IC (TGI): TGI=total growth inhibition (cytostatic effect), read-out: TGI A-549; for CC50: LC=cell killing (cytotoxic effect)
How it was run: as §1

[8] = system: IGROV; experiment: SRB colorimetric cell growth inhibition assay, IGROV; conditions: Homo sapiens, IGROV; for CC50: LC=cell killing (cytotoxic effect); for GI50: GI=growth inhibition, read-out: GI50 IGROV; for IC (TGI): TGI=total growth inhibition (cytostatic effect), read-out: TGI IGROV
How it was run: as §1

[9] = system: HeLa-APL; experiment: SRB colorimetric cell growth inhibition assay, HeLa-APL (aplidine resistant); conditions: Homo sapiens; for GI50: read-out: GI50 HELA-APL; for CC50: LC=cell killing (cytotoxic effect); for IC (TGI): read-out: TGI HELA-APL
How it was run: as §1

[10] = system: DU-145; experiment: SRB colorimetric cell growth inhibition assay, DU-145; conditions: Homo sapiens; for GI50: GI=growth inhibition, read-out: GI50 DU-145; for IC (TGI): TGI=total growth inhibition (cytostatic effect), read-out: TGI DU-145; for CC50: LC=cell killing (cytotoxic effect)
How it was run: as §1

[11] = system: SK-BR-3; experiment: SRB colorimetric cell growth inhibition assay, SK-BR-3; conditions: Homo sapiens; for GI50: GI=growth inhibition, read-out: GI50 SK-BR-3; for IC (TGI): TGI=total growth inhibition (cytostatic effect), read-out: TGI SK-BR-3; for CC50: LC=cell killing (cytotoxic effect)
How it was run: as §1

[12] = system: K-562; experiment: SRB colorimetric cell growth inhibition assay, K-562; conditions: Homo sapiens; for GI50: GI=growth inhibition, read-out: GI50 K-562; for IC (TGI): TGI=total growth inhibition (cytostatic effect), read-out: TGI K-562; for CC50: LC=cell killing (cytotoxic effect)
How it was run: as §1

[13] = system: PANC-1; experiment: SRB colorimetric cell growth inhibition assay, PANC-1; conditions: Homo sapiens; for GI50: GI=growth inhibition, read-out: GI50 PANC-1; for IC (TGI): TGI=total growth inhibition (cytostatic effect), read-out: TGI PANC-1; for CC50: LC=cell killing (cytotoxic effect)
How it was run: as §1

[14] = system: HT-29; experiment: SRB colorimetric cell growth inhibition assay, HT-29; conditions: Homo sapiens; for GI50: GI=growth inhibition, read-out: GI50 HT-29; for IC (TGI): TGI=total growth inhibition (cytostatic effect), read-out: TGI HT-29; for CC50: LC=cell killing (cytotoxic effect)
How it was run: as §1

`COc1cc(-c2c3n(c4c(=O)oc5cc(OC(=O)[C@@H](N)CO)c(OC)cc5c24)CCc2c-3cc(OC)c(OC)c2OC(=O)[C@@H](N)CO)ccc1OC(=O)[C@@H](N)CO` [Compound 59] gave a GI50 ([1]; SK-MEL-28, MEL-28) of 1.62 µM, an IC (TGI) ([1]; SK-MEL-28, MEL-28) of 3.04 µM and a CC50 ([1]; SK-MEL-28, read-out: LC50 MEL-28, MEL-28) of 5.67 µM. The GI50 ([2]; LOVO-DOX) was 0.528 µM, the IC (TGI) ([2]; LOVO-DOX) was 1.6 µM and the CC50 ([2]; read-out: LC50 LOVO-DOX, LOVO-DOX) was 4.56 µM. For the same molecule, the CC50 ([3]; read-out: LC50 LOVO, LOVO) was 5.67 µM, the GI50 [3] was 1.13 µM and the IC (TGI) [3] was 2.53 µM. It also gave a CC50 ([4]; read-out: LC50 HELA, HELA) of 6.44 µM, an IC (TGI) [4] of 2.98 µM and a GI50 [4] of 1.37 µM. For the same molecule, the GI50 ([5]; LN-caP) was 1.37 µM, the IC (TGI) ([5]; LN-caP) was 2.63 µM and the CC50 ([5]; read-out: LC50 LN-caP, LN-caP) was 5.06 µM. It also gave a GI50 ([6]; IGROV-ET) of 0.632 µM, an IC (TGI) ([6]; IGROV-ET) of 2.04 µM and a CC50 ([6]; read-out: LC50 IGROV-ET, IGROV-ET) of 5.98 µM. It also gave a GI50 ([7]; A549, A-549) of 1.7 µM, an IC (TGI) ([7]; A549, A-549) of 3.29 µM and a CC50 ([7]; A549, read-out: LC50 A-549, A-549) of 6.36 µM. For the same molecule, the CC50 ([8]; read-out: LC50 IGROV, IGROV) was 7.67 µM, the GI50 [8] was 0.899 µM and the IC (TGI) [8] was 2.63 µM. It also gave a GI50 [9] of 1.88 µM, a CC50 ([9]; read-out: LC50 HELA-APL, HELA-APL) of 8.12 µM and an IC (TGI) [9] of 3.9 µM. For the same molecule, the GI50 ([10]; DU-145, DU-145) was 1.39 µM, the IC (TGI) ([10]; DU-145, DU-145) was 2.6 µM and the CC50 ([10]; DU-145, read-out: LC50 DU-145, DU-145) was 4.86 µM. For the same molecule, the GI50 ([11]; SK-BR-3, SK-BR-3) was 0.372 µM, the IC (TGI) ([11]; SK-BR-3, SK-BR-3) was 1.15 µM and the CC50 ([11]; SK-BR-3, read-out: LC50 SK-BR-3, SK-BR-3) was 4.11 µM. It also gave a GI50 ([12]; K562, K-562) of 1.64 µM, an IC (TGI) ([12]; K562, K-562) of 3.45 µM and a CC50 ([12]; K562, read-out: LC50 K-562, K-562) of 7.27 µM. The GI50 ([13]; PANC-1, PANC-1) was 1.1 µM, the IC (TGI) ([13]; PANC-1, PANC-1) was 3.48 µM and the CC50 ([13]; PANC-1, read-out: LC50 PANC-1, PANC-1) was 8.81 µM. It also gave a GI50 ([14]; HT-29, HT-29) of 1.97 µM, an IC (TGI) ([14]; HT-29, HT-29) of 3.7 µM and a CC50 ([14]; HT-29, read-out: LC50 HT-29, HT-29) of 6.98 µM.
For `COc1cc2c(cc1OC)-c1c(-c3ccc(OC(=O)CCCC[C@@H]4SC[C@@H]5NC(=O)N[C@@H]54)c(OC)c3)c3c4cc(OC)c(OC(=O)CCCC[C@@H]5SC[C@@H]6NC(=O)N[C@@H]65)cc4oc(=O)c3n1CC2` [Compound 47], the GI50 ([1]; SK-MEL-28, MEL-28) was 2.07 µM, the CC50 ([1]; SK-MEL-28, MEL-28, read-out: LC50 MEL-28) was 10.3 µM and the IC (TGI) ([1]; SK-MEL-28, MEL-28) was 10.3 µM. It also gave a GI50 ([2]; LOVO-DOX) of 8.09 µM, a CC50 ([2]; LOVO-DOX, read-out: LC50 LOVO-DOX) of 10.3 µM and an IC (TGI) ([2]; LOVO-DOX) of 10.3 µM. It also gave a GI50 [3] of 3.97 µM, a CC50 ([3]; read-out: LC50 LOVO) of 10.3 µM and an IC (TGI) [3] of 10.3 µM. The GI50 [4] was 0.537 µM, the CC50 ([4]; read-out: LC50 HELA) was 10.3 µM and the IC (TGI) ([4]; TGI=total growth inhibition (cytostatic effect)) was 4.79 µM. For the same molecule, the GI50 ([5]; LN-caP) was 0.0884 µM, the CC50 ([5]; LN-caP, read-out: LC50 LN-caP) was 5.87 µM and the IC (TGI) ([5]; LN-caP) was 1.59 µM. It also gave a GI50 ([6]; IGROV-ET) of 2.07 µM, a CC50 ([6]; IGROV-ET, read-out: LC50 IGROV-ET) of 10.3 µM and an IC (TGI) ([6]; IGROV-ET) of 10.3 µM. It also gave a GI50 ([7]; A549, A-549) of 3.26 µM, a CC50 ([7]; A549, A-549, read-out: LC50 A-549) of 10.3 µM and an IC (TGI) ([7]; A549, A-549) of 10.3 µM. For the same molecule, the GI50 [8] was 0.764 µM, the CC50 ([8]; read-out: LC50 IGROV) was 10.3 µM and the IC (TGI) [8] was 10.3 µM. The GI50 ([9]; HELA-APL, GI=growth inhibition) was 5.75 µM, the CC50 ([9]; HELA-APL, read-out: LC50 HELA-APL) was 10.3 µM and the IC (TGI) ([9]; HELA-APL, TGI=total growth inhibition (cytostatic effect)) was 10.3 µM. The GI50 ([10]; DU-145, DU-145) was 1.08 µM, the CC50 ([10]; DU-145, DU-145, read-out: LC50 DU-145) was 10.3 µM and the IC (TGI) ([10]; DU-145, DU-145) was 4.61 µM. The GI50 ([11]; SK-BR-3, SK-BR-3) was 2.29 µM, the CC50 ([11]; SK-BR-3, SK-BR-3, read-out: LC50 SK-BR-3) was 10.3 µM and the IC (TGI) ([11]; SK-BR-3, SK-BR-3) was 6.01 µM. It also gave a GI50 ([12]; K562, K-562) of 0.564 µM, a CC50 ([12]; K562, K-562, read-out: LC50 K-562) of 10.3 µM and an IC (TGI) ([12]; K562, K-562) of 3.74 µM. It also gave a GI50 ([13]; PANC-1, PANC-1) of 3.86 µM, a CC50 ([13]; PANC-1, PANC-1, read-out: LC50 PANC-1) of 10.3 µM and an IC (TGI) ([13]; PANC-1, PANC-1) of 10.3 µM. The GI50 ([14]; HT-29, HT-29) was 1.25 µM, the CC50 ([14]; HT-29, HT-29, read-out: LC50 HT-29) was 10.3 µM and the IC (TGI) ([14]; HT-29, HT-29) was 10.3 µM.
